Measurements from patent US20210205329A1 (The University of North Carolina at Chapel Hill, priority 2018, published 2021).
Where “and” joins values, the source holds several entries; their conditions need not be identical. Identical values can stand only once.

Biological target: T1, TLR4/GABAAR α2 binding (Rattus norvegicus, UniProt Q9QX05)
T1 construct: from tissue; host or cells: ventral tegmental area (VTA) of alcohol-preferring (P) rats
T1 sequence (Q9QX05 26-835): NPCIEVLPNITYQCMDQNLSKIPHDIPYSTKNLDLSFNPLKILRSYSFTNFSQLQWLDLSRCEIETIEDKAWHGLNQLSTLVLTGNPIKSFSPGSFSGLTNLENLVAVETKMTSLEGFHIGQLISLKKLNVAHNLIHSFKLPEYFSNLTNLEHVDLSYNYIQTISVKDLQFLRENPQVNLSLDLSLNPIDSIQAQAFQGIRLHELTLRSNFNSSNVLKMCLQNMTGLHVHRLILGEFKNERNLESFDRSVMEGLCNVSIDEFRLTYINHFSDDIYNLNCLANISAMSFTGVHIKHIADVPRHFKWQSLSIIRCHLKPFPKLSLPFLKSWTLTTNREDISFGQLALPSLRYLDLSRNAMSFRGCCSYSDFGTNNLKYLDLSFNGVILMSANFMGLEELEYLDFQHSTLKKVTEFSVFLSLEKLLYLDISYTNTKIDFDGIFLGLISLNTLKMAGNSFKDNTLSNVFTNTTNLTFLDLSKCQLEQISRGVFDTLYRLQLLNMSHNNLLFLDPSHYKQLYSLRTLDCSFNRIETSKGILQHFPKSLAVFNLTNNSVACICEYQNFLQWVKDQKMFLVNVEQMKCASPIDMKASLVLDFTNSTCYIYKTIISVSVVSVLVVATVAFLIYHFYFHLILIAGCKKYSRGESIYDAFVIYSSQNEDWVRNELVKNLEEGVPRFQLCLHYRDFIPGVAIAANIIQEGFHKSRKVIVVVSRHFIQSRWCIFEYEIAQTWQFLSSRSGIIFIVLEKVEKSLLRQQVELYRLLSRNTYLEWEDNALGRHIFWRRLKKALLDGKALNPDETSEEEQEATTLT
Test: TLR4/GABAAR α2 co-immunoprecipitation in P rat VTA
Format: in vivo
Conditions: 15 mg/kg IP, P rats
Description: Co-Immunoprecipitation Assay RAW264.7 cells [treated with LPS (1 μg/ml), 3α,5α-THP (1 μM) or pregnenolone (1 μM)] were exposed to chemical protein crosslinking (Poulopoulos et al, 2009) at 24 hrs post-treatment. Briefly, the cells were incubated (20 min on ice) with 1 mM of the cleavable, membrane-permeable crosslinker DSP (Thermo Fisher Scientific, Cat. #PG82081). Rat VTA homogenates were incubated (20 min on ice) with 200 μM of DSP. The crosslinker was quenched in 1 M Tris buffer (pH 7.5) (to a final concentration of 10-20 mM), and the material was centrifuged at 21,000×g for 15 min. Proteins from the cells were extracted with Pierce IP Lysis Buffer (Thermo Fisher Scientific, Cat. #87787) supplemented with protease and phosphatase inhibitor cocktails (Sigma). Proteins from the VTA were extracted with CelLytic MT (dialyzable mild detergent, bicine and 150 mM NaCl; Sigma Aldrich, St. Louis, Mo., USA, Cat. #C3228) supplemented with protease and phosphatase inhibitor cocktails (Sigma) according to the manufacturers instructions. […]

## CC(=O)[C@H]1CC[C@H]2[C@@H]3CC[C@H]4C[C@H](O)CC[C@]4(C)[C@H]3CC[C@]12C [3α,5α-THP, (3α,5α)3-hydroxypregnan-20-one]
  inhibition of TLR4/GABAAR α2 binding (α2 co-precipitating with TLR4) in VTA: 62.7±9.2% and 82.7±9.2% and ~80%
